Measured values reported in PMC7998731, “Pharmacokinetic Characterization of Supinoxin and Its Physiologically Based Pharmacokinetic Modeling in Rats” (Pharmaceutics, 2021).
Where “and” joins values, the source holds several entries; their conditions need not be identical. Equal values may be shown once. Read-outs that look alike come from different tables or passages of the source.

Legend:
[1] = system: advanced triple-negative breast cancer; parameters: method as in doi:10.1200/JCO.2018.36.15_suppl.1097; conditions: cited from earlier work
[2] = target: T1, CYP2D6 (Homo sapiens, UniProt P10635); test: CYP inhibition, Vivid CYP450 screening kit; assay type: in vitro ADME
T1 construct: purchased Thermo Fisher Scientific
Protocol: (§1) CYP inhibition by supinoxin was studied using Vivid® CYP450 screening kits (Thermo Fisher Scientific, San Jose, CA, USA) following the manufacturer’s instructions. Briefly, Vivid® substrates were dissolved in acetonitrile yielding a stock solution of 2 mM. Fluorescent assays were conducted at room temperature using Costar 96-well black plates (#3915; Corning Costar, Acton, MA, USA). Supinoxin stock solution was diluted in reaction buffer to yield a 2.5X concentration solution (final concentration of 10 µM); aliquots (40 μL) of the solution were added to the wells. Subsequently, aliquots (50 μL) of reaction mixture consisting of P450 Baculosomes® Reagent and the NADPH regeneration system were also added to the wells and preincubated for 10 min, at room temperature, after which 10 μL of 1 mM NADP^+ and Vivid® substrate mixture were added. After a 30-min incubation, fluorescence was detected in end-point mode using a Varioscan™ Flash multimode reader (Thermo Fisher Scientific, San Jose, CA, USA). Background fluorescence was obtained from wells not containing CYP isozymes and was withdrawn before further reaction. The excitation and emission wavelengths of 485 nm/530 nm for Vivid® Green substrates, and 409 nm/460 nm for Vivid® Blue substrates were used. The inhibition percentage of the compound was determined in comparison to the vehicle (i.e., DMSO)-treated control wells. For isozymes with > 50% inhibition at 10 μM, we determined the concentration-dependent inhibition of supinoxin to obtain the IC50 value at concentrations ranging from 0.59 to 10 μM.

[3] = target: T2, CYP1A2 (Homo sapiens, UniProt P05177); test: CYP inhibition, Vivid CYP450 screening kit; assay type: in vitro ADME
T2 construct: purchased Thermo Fisher Scientific
T2 sequence (P05177 1-516): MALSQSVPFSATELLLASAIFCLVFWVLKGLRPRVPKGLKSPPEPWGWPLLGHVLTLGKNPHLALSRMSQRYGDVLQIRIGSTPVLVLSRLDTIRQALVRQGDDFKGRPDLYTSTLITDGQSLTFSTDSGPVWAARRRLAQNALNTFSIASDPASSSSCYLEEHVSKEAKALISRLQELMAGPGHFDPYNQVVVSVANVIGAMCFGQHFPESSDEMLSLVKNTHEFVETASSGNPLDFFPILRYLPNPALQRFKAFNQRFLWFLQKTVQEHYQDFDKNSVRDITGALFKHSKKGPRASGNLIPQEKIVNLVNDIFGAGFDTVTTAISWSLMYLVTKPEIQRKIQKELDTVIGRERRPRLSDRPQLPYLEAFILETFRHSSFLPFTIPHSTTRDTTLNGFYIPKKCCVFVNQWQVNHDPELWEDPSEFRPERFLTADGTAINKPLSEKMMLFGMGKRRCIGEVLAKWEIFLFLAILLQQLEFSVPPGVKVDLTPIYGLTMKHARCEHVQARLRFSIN
Protocol: as §1

[4] = target: T3, CYP2C9 (Homo sapiens, UniProt P11712); test: CYP inhibition, Vivid CYP450 screening kit; assay type: in vitro ADME
T3 construct: purchased Thermo Fisher Scientific
Protocol: as §1

[5] = target: T4, CYP3A4 (Homo sapiens, UniProt P08684); test: CYP inhibition, Vivid CYP450 screening kit; assay type: in vitro ADME
T4 construct: purchased Thermo Fisher Scientific
Protocol: as §1

[6] = target: T5, CYP2C19 (Homo sapiens, UniProt P33261); test: CYP inhibition, Vivid CYP450 screening kit; assay type: in vitro ADME
T5 construct: purchased Thermo Fisher Scientific
Protocol: as §1

[7] = Determination of urinary and fecal excretion in rats; assay type: in vivo; conditions: 5 mg/kg; for Fecal excretion, Amount / Fecal excretion, Fraction Excreted (unchanged) / Urinary excretion, Amount / Urinary excretion, Fraction Excreted (unchanged): 0–48 h
Protocol: Supinoxin was administered to male SD rats (n = 3–4) at a dose of 5 mg/kg either intravenously (through the tail vein) or by oral gavage, following which rats were kept in metabolic cages and urine and feces samples were collected over the following time intervals: 0–2, 2–4, 4–6, 6–10, 10–24, 24–36, and 36–48 h for urine; 0–10, 10–24, 24–36, and 36–48 h for feces.
The metabolic cages were rinsed with distilled water, and residues were added to the urine samples at 48 h. To extract the supinoxin present in the feces, samples were homogenized with a blender mixer and shaken vigorously for 4 h with 50% methanol.
The amount of drug excreted in urine or feces (Ae) and the dose fractions excreted unchanged in urine or feces (fe) were calculated as:Ae = Cobs, urine or feces × Vurine or feces(2) fe = Ae/Dose(3)
The urinary and fecal clearances of supinoxin were calculated as:CLurine or feces = Ae, urine or feces/AUC(4)

[8] = Tissue distribution (tissue-to-plasma partition) in rats; assay type: in vivo; conditions: male, rat; for Vd: oral; for AUC(0-t): mean, read-out: AUC0–24h

T5 sequence (P33261 whole entry): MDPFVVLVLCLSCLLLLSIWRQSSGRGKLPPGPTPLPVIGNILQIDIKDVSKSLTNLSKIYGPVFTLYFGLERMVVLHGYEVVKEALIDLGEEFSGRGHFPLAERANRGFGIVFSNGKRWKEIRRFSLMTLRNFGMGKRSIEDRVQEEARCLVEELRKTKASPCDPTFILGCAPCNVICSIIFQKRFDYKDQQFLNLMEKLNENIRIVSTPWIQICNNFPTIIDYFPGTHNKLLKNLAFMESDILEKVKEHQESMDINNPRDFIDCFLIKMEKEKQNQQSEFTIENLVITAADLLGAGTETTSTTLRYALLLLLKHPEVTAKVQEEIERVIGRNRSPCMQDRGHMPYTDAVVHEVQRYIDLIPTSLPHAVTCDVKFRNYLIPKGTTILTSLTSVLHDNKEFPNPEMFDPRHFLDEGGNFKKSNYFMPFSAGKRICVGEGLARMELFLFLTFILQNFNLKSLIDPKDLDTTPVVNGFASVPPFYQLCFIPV
T4 sequence (P08684 whole entry): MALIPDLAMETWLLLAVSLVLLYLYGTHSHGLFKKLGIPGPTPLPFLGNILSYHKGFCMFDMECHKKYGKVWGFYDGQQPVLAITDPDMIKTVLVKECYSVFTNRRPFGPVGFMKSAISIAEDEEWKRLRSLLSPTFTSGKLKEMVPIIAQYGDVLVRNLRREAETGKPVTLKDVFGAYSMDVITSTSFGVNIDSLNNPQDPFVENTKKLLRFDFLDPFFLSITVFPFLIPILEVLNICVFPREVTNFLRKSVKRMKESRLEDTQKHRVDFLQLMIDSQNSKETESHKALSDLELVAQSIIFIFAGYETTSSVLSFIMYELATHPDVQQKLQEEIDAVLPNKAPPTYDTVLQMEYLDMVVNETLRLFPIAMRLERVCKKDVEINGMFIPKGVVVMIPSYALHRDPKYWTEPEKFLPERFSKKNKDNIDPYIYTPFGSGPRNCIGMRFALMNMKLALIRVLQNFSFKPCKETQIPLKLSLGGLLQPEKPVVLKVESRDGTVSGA
T3 sequence (P11712 whole entry): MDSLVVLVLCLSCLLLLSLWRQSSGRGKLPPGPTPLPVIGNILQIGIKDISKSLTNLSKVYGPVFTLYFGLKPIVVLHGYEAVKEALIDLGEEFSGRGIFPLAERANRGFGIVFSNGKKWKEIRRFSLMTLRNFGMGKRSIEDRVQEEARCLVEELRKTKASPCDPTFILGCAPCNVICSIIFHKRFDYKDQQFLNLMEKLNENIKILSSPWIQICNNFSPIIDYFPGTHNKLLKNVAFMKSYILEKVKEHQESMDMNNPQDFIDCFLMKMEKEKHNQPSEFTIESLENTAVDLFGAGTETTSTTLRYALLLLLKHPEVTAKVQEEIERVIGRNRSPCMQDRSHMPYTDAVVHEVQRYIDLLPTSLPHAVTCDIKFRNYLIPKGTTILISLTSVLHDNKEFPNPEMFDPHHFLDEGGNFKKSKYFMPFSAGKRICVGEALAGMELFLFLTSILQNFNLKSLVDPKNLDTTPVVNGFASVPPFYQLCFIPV
T1 sequence (P10635 whole entry): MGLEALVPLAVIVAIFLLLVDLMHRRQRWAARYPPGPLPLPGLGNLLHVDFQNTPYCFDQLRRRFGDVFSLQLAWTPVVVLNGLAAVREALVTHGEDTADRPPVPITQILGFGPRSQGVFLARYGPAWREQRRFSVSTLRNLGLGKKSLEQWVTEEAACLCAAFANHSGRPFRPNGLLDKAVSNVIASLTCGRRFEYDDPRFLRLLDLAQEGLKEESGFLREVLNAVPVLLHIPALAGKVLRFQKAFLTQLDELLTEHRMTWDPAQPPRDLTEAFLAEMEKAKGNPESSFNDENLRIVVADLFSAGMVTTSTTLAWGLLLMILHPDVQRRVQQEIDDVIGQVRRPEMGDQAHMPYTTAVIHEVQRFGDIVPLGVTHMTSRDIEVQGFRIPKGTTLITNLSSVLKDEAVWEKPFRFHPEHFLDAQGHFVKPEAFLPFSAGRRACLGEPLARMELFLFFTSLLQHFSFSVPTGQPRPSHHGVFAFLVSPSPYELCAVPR

Compound: COc1cc(OC)cc(N2CCN(C(=O)Nc3nc4cc(F)ccc4nc3OC)CC2)c1 [supinoxin, 1-(3,5-Dimethoxyphenyl)-4-[(6-Fluoro-2-Methoxyquinoxalin-3-yl) Aminocarbonyl] Piperazine]
- patients with stable disease ([1]; after two cycles of therapy): five of the 11 patients
- safety and tolerability of the suggested dose [1]: safe and well tolerated
- tumor reduction ([1]; one subject, after two cycles of therapy): 18.2%
- IC50 ([2]; human recombinant CYP2D6): > 10 µM
- inhibition at 30 min, 10 µM ([2]; recombinant human CYP2D6 (P450 Baculosomes), probe Vivid substrate, human recombinant CYP2D6, 10 µM, read-out: inhibition compared to the vehicle control): < 0.01%
- IC50 ([3]; human recombinant CYP1A2): > 10 µM
- inhibition at 30 min, 10 µM ([3]; recombinant human CYP1A2 (P450 Baculosomes), probe Vivid substrate, human recombinant CYP1A2, 10 µM, read-out: inhibition compared to the vehicle control): 5.9%
- IC50 ([4]; human recombinant CYP2C9): > 10 µM
- inhibition at 30 min, 10 µM ([4]; recombinant human CYP2C9 (P450 Baculosomes), probe Vivid substrate, human recombinant CYP2C9, 10 µM, read-out: inhibition compared to the vehicle control): 16.2%
- IC50 ([5]; human recombinant CYP3A4, 0.59 to 10 μM): 4.66 µM
- inhibition at 30 min, 10 µM ([5]; recombinant human CYP3A4 (P450 Baculosomes), probe Vivid substrate, human recombinant CYP3A4, 10 µM): > 50%
- IC50 ([6]; human recombinant CYP2C19): > 10 µM
- inhibition at 30 min, 10 µM ([6]; recombinant human CYP2C19 (P450 Baculosomes), probe Vivid substrate, human recombinant CYP2C19, 10 µM, read-out: inhibition compared to the vehicle control): 35.7%
- Fecal excretion, Amount ([7]; IV): 142 ± 21.6 µg
- Fecal excretion, Fraction Excreted (unchanged) ([7]; IV): 16.5% and 16.5 ± 2.82%
- Urinary excretion, Amount ([7]; IV): 0.27 ± 0.06 µg
- Urinary excretion, Fraction Excreted (unchanged) ([7]; IV): 0.03% and 0.03 ± 0.01%
- Fecal excretion, Amount ([7]; PO): 412 ± 209 µg
- Fecal excretion, Fraction Excreted (unchanged) ([7]; PO): 46.8% and 46.8 ± 24.5%
- Urinary excretion, Amount ([7]; PO): 0.06 ± 0.04 µg
- Urinary excretion, Fraction Excreted (unchanged) ([7]; PO): 0.01% and 0.01 ± 0.01%
- dose excreted ([7]; male, Sprague-Dawley (SD), rat, urine, both intravenous and oral administration, read-out: total urinary recovery of unchanged supinoxin): < 0.1%
- Vd ([8]; Sprague Dawley, plasma, 5 mg/kg, estimated Kp and tissue volumes from literature, read-out: steady state volume of distribution calculated from Kp and tissue volumes): 1.92 L
- AUC(0-t) ([8]; Sprague Dawley, Adipose tissue, rats, oral administration (5 mg/kg)): 111000 ng·h/mL
- AUC(0-t) ([8]; Sprague Dawley, Spleen, rats, oral administration (5 mg/kg)): 3310 ng·h/mL
- AUC(0-t) ([8]; Sprague-Dawley, kidney, Kidneys, rats, oral administration (5 mg/kg)): 11100 ng·h/mL
- Kp ([8]; Sprague-Dawley, kidney, Kidneys, rats, oral administration (5 mg/kg), read-out: Kp (tissue to plasma AUC ratio)): 2.18
- AUC(0-t) ([8]; Sprague-Dawley, lung, Lungs, rats, oral administration (5 mg/kg)): 5520 ng·h/mL
- Kp ([8]; Sprague-Dawley, lung, Lungs, rats, oral administration (5 mg/kg), read-out: Kp (tissue to plasma AUC ratio)): 1.08
- AUC(0-t) ([8]; Sprague-Dawley, muscle, Muscles, rats, oral administration (5 mg/kg)): 6130 ng·h/mL
- Kp ([8]; Sprague-Dawley, muscle, Muscles, rats, oral administration (5 mg/kg), read-out: Kp (tissue to plasma AUC ratio)): 1.2
- Vd ([8]; Sprague-Dawley, 5 mg/kg, sum of Kp × Volume over plasma and tissues, read-out: Vd): 1.92 L/kg
- Kp ([8]; Sprague-Dawley, several tissues (range over tissues), intravenous, 5 mg/kg, range over tissues, PBPK input parameter, Determined, read-out: Tissue: Plasma partition coefficients): 0.649 to 21.7
- AUC(0-t) ([8]; Sprague-Dawley, Adipose tissue, rats, oral administration (5 mg/kg)): 111000 ng·h/mL
- Kp ([8]; Sprague-Dawley, Adipose tissue, rats, oral administration (5 mg/kg), read-out: Kp (tissue to plasma AUC ratio)): 21.7
- AUC(0-t) ([8]; Sprague-Dawley, Brain, rats, oral administration (5 mg/kg)): 4350 ng·h/mL
- Kp ([8]; Sprague-Dawley, Brain, rats, oral administration (5 mg/kg), read-out: Kp (tissue to plasma AUC ratio)): 0.85
- AUC(0-t) ([8]; Sprague-Dawley, Gut, rats, oral administration (5 mg/kg)): 25300 ng·h/mL
- Kp ([8]; Sprague-Dawley, Gut, rats, oral administration (5 mg/kg), read-out: Kp (tissue to plasma AUC ratio)): 4.96
- AUC(0-t) ([8]; Sprague-Dawley, Heart, rats, oral administration (5 mg/kg)): 3550 ng·h/mL
- Kp ([8]; Sprague-Dawley, Heart, rats, oral administration (5 mg/kg), read-out: Kp (tissue to plasma AUC ratio)): 0.7
- AUC(0-t) ([8]; Sprague-Dawley, Liver, rats, oral administration (5 mg/kg)): 24300 ng·h/mL
- Kp ([8]; Sprague-Dawley, Liver, rats, oral administration (5 mg/kg), read-out: Kp (tissue to plasma AUC ratio)): 4.76
- AUC(0-t) ([8]; Sprague-Dawley, Plasma, rats, oral administration (5 mg/kg)): 5110 ng·h/mL
- Kp ([8]; Sprague-Dawley, Plasma, rats, oral administration (5 mg/kg), read-out: Kp (tissue to plasma AUC ratio)): 1
- AUC(0-t) ([8]; Sprague-Dawley, Spleen, rats, oral administration (5 mg/kg)): 3310 ng·h/mL
- Kp ([8]; Sprague-Dawley, Spleen, rats, oral administration (5 mg/kg), read-out: Kp (tissue to plasma AUC ratio)): 0.65
- AUC(0-t) ([8]; Sprague-Dawley, Testes, rats, oral administration (5 mg/kg)): 5370 ng·h/mL
- Kp ([8]; Sprague-Dawley, Testes, rats, oral administration (5 mg/kg), read-out: Kp (tissue to plasma AUC ratio)): 1.05
